{"source": "paper PMC3692431", "about": "“Anticonvulsant Activity of B2, an Adenosine Analog, on Chemical Convulsant-Induced Seizures” (PLoS ONE, 2013)", "key": {"4-AP-induced seizures": {"tested_on": "4-AP-induced seizures", "experiment": "4-AP-induced seizures in mice", "type": "in vivo", "conditions": "80 mg/kg, positive control, 4-AP 13 mg/kg", "method": "(§1) KA was dissolved in saline and the pH was adjusted to neutrality. The final concentration of KA was 0.7 µg/µl, and the convulsant dose was 1 µl (i.c.v.). […] The selective adenosine receptor antagonist DPCPX or SCH58261 was administered (i.p.) 5 min before administration of B2 or vehicle.\n(§2) Mice were injected with B2 (1.25, 5, 20 mg/kg), carbamazepine (80 mg/kg) or vehicle 20 min before administration of strychnine (1.5 mg/kg) or 4-AP (13 mg/kg). […] The time of latency to seizure onset and mortality rate were recorded."}, "[1]": {"tested_on": "strychnine-induced seizures", "experiment": "Strychnine-induced seizures in mice", "type": "in vivo", "conditions": "80 mg/kg, positive control; strychnine 1.5 mg/kg i.p.", "method": "as §1, §2"}, "PTZ-induced seizures [2]": {"tested_on": "PTZ-induced seizures", "experiment": "PTZ-induced seizures with adenosine receptor antagonist pretreatment", "type": "in vivo, mice", "conditions": "PTZ 85 mg/kg", "method": "as §1\nTwenty min later, mice were admdinistered with PTZ (85 mg/kg)."}, "PTZ-induced seizures [3]": {"tested_on": "PTZ-induced seizures", "experiment": "PTZ-induced seizures in mice", "type": "in vivo", "conditions": "10 mg/kg i.p.; PTZ 85 mg/kg s.c.; P<0.001", "method": "The latency of seizure onset, number of seizures, and mortality rate was recorded for the picrotoxin-injected mice. For the PTZ-injected mice, we recorded the latency of seizure onset, number of seizures, and presence of clonic seizures."}, "KA-induced seizures": {"tested_on": "KA-induced seizures", "experiment": "KA-induced seizures in mice", "type": "in vivo", "conditions": "10 mg/kg, positive control, KA 0.7 µg i.c.v.", "method": "as §1\nThe left lateral ventricle (0.6 mm posterior, 1.9 mm lateral, and 2.1 mm ventral to bregma) was cannulated as described. After a 7-day recovery period, mice were injected with either B2 (1.25, 5, 20 mg/kg) or vehicle. Twenty minutes later, an intracerebroventricular injection of KA (0.7 µg/µl, 1 µl) was administered without anesthesia. The animals were then observed for a minimum of 60 min. Seizure severity was determined according to the scoring system described by Racine. At the end of the experiment, cannulae placement was verified."}}}
{"smiles": "NC(=O)N1c2ccccc2C=Cc2ccccc21", "note": "[Carbamazepine, carbamazepine, reference compound]", "values": [{"measurement": "effect on latency to seizure onset", "setting": "4-AP-induced seizures; P<0.001", "result": "significantly prolonged"}, {"measurement": "effect on mortality rate", "setting": "4-AP-induced seizures; P<0.05", "result": "reduced the mortality rate"}, {"measurement": "protection against strychnine-induced seizures", "setting": "[1]", "result": "complete protection"}]}
{"smiles": "CCCn1c(=O)c2[nH]c(C3CCCC3)nc2n(CCC)c1=O", "note": "[DPCPX, 8-Cyclopentyl-1,3-dipropylxanthine]", "values": [{"measurement": "effect on onset time of seizure, antagonist alone", "setting": "PTZ-induced seizures [2]; DPCPX 0.3125–1.25 mg/kg i.p. alone", "result": "did not affect"}, {"measurement": "effect on the delaying effect of B2 on onset times of seizure", "setting": "PTZ-induced seizures [2]; DPCPX pretreatment 5 min before B2 5 mg/kg, P<0.05", "result": "significantly blocked"}]}
{"smiles": "CN1C(=O)CN=C(c2ccccc2)c2cc(Cl)ccc21", "note": "[Diazepam, diazepam, reference compound]", "values": [{"measurement": "protection against PTZ-induced seizures", "setting": "PTZ-induced seizures [3]", "result": "completely protected"}, {"measurement": "protection against KA-induced seizures", "setting": "KA-induced seizures", "result": "significant protection"}]}
{"smiles": "Nc1nc2c(cnn2CCc2ccccc2)c2nc(-c3ccco3)nn12", "note": "[SCH58261, 5-amino-7-(β-phenylethyl)-2-(2-furyl)-pyrazolo-[4,3-e]-1,2,4-triazolo[1,5-c]-pyrimidine]", "values": [{"measurement": "effect on onset time of seizure, antagonist alone", "setting": "PTZ-induced seizures [2]; SCH58261 0.08–1.25 mg/kg i.p. alone", "result": "did not affect"}, {"measurement": "effect on the delaying effect of B2 on seizure onset time", "setting": "PTZ-induced seizures [2]; SCH58261 pretreatment 5 min before B2 5 mg/kg", "result": "did not affect the delaying effect"}]}
